Reference: patent EP4678638A1, “NEW E3 UBIQUITIN LIGASE LIGAND, PROTEIN DEGRADATION AGENT AND USE THEREOF” (priority 2023, dated 2024)

Columns and labels:
MCF7 = assay: CCK-8 proliferation, MCF7 (MCF-7); format: cell-based; details: Homo sapiens, MCF7; CCK-8; read-out: Inhibitory activity (IC50) on tumor cell proliferation, MCF7
Description: (§1) The tumor cells used herein were cultured in a cell culture medium listed in table A1 at 37°C in an incubator with 5% CO2. Prior to experimentation, all cell lines used were correctly identified by STR profiling, and tested negative for mycoplasma contamination using a mycoplasma detection kit through routine screenings. Table A1. Tumor cells and cell culture medium used in the present disclosure
(§2) IC50 values of the compounds of the present disclosure (including the compounds in Table 1, and compounds of examples) were measured using the Meilun Cell Counting Kit-8 kit from Dalian Meilun Biotech Co., Ltd. Assay details are as follows: tumor cells were seeded in a 96-well plate at a density listed in Table A2. After 24h, 100 µL of the inoculated cells were treated with 0.5µL of the compounds of the present disclosure (including the compounds in Tables 1 and 2, and compounds of examples) at 10 different successively decreasing concentrations (starting at the highest concentration of 10µM; 5-fold serial dilutions). After the cells were treated with the compounds of the present disclosure for a period of time, the cell viability detection reagent was added to the culture medium for cell viability assessment according to the instructions provided with the CCK-8 kit. […] The growth inhibition of the compounds of the present disclosure on cells was plotted by Prism Graphpad software, and the IC50 values of the compounds of the present disclosure were calculated therefrom. […] Seeding protocol and treatment time for tumor cells

H2228 = assay: CCK-8 proliferation, NCI-H2228 (H2228); format: cell-based; details: Homo sapiens, NCI-H2228; Table B6, compounds designed based on the ALK inhibitors; H2228 cells; read-out: Inhibitory activity (IC50, nM) on tumor cell proliferation, H2228
Description: as §1, §2

SR = assay: CCK-8 proliferation, SR; format: cell-based, Human; details: Homo sapiens; Table B6, compounds designed based on the ALK inhibitors; SR cells; read-out: Inhibitory activity (IC50, nM) on tumor cell proliferation, SR
Description: as §1, §2

H1975 = assay: CCK-8 proliferation, NCI-H1975 (H1975); format: cell-based, Human; details: Homo sapiens, NCI-H1975; CCK-8; 96 hours; read-out: Inhibitory activity (IC50) on tumor cell proliferation, H1975
Description: as §1, §2

| Compound | IC50 (H1975) [nM] | other results |
| --- | --- | --- |
| CC(=O)c1c(C)c2cnc(Nc3ccc(N4CCN(Cc5cccc(N6CCC(=O)NC6=O)c5)CC4)cn3)nc2n(C2CCCC2)c1=O [GT-06577, 1-(3-((4-(6-((6-acetyl-8-cyclopentyl-5-methyl-7-oxo-7,8-dihydropyrido[2,3-d]pyrimidin-2-yl)amino)pyridin-3-yl)piperazin-1-yl)methyl)phenyl)dihydropyr imidine-2,4(1H,3H)-dione] |  | IC50 (MCF7): 100 to 500 nM |
| CCc1cc2c(cc1N1CCC(N3CCN(Cc4cccc(NC5CCC(=O)NC5=O)c4)CC3)CC1)C(C)(C)c1[nH]c3cc(C#N)ccc3c1C2=O (stereo not shown) [GT-07313, 8-(4-(4-(3-((2,6-dioxopiperidin-3-yl)amino)benzyl)piperazin-1-yl)piperidin-1-yl)-9-ethyl-6,6-dimethyl-11-oxo-6,11-dihydro-5H-benzo[b]carbazole-3-carbonitrile] |  | IC50 (H2228): 100 to 500 nM; IC50 (SR): 1 to 10 nM |
| Cc1cc(Nc2ncc(Cl)c(Nc3ccccc3S(=O)(=O)C(C)C)n2)c(OC(C)C)cc1C1CCN(Cc2ccc(C3CCC(=O)NC3=O)c(F)c2)CC1 (stereo not shown) [GT-07365, 3-(4-((4-(4-((5-chloro-4-((2-(isopropylsulfonyl)phenyl)amino)pyrimidin-2-yl)amino)-5-isopropoxy-2-methylphenyl)piperidin-1-yl)methyl)-2-fluorophenyl)piperidine-2,6-dione] |  | IC50 (H2228): 100 to 500 nM; IC50 (SR): 100 to 500 nM |
| O=C1CCN(c2cncc(CN3CCN(c4ccc(-c5cc(F)c6c(c5)C(=O)N(C(C(=O)Nc5nccs5)c5ncn7c5CCC7)C6)cc4)CC3)c2)C(=O)N1 (stereo not shown) [GT-07380, 2-(6,7-dihydro-5H-pyrrolo[1,2-c]imidazol-1-yl)-2-(6-(4-(4-((5-(2,4-dioxotetrahydropyrimidin-1(2H)-yl)pyridin-3-yl)methyl)piperazin-1-yl)phenyl)-4-fluoro-1-oxoisoindolin-2-yl)-N-(thiazol-2-yl)acetamide] | 1 to 10 |  |
| O=C1CCC(c2ccc(CN3CCN(c4ccc(-c5cc(F)c6c(c5)C(=O)N(C(C(=O)Nc5nccs5)c5ncn7c5CCC7)C6)cc4)CC3)nc2)C(=O)N1 (stereo not shown) [GT-07381, 2-(6,7-dihydro-5H-pyrrolo[1,2-c]imidazol-1-yl)-2-(6-(4-(4-((5-(2,6-dioxopiperidin-3-yl)pyridin-2-yl)methyl)piperazin-1-yl)phenyl)-4-fluoro-1-oxoisoindolin-2-yl)-N-(thiazol-2-yl)acetamide] | 1 to 10 |  |
| CN(Cc1cc(N2CCC(=O)NC2=O)ncc1F)C1CCN(c2ccc(-c3cc(F)c4c(c3)C(=O)N(C(C(=O)Nc3nccs3)c3ncn5c3CCC5)C4)cc2)CC1 (stereo not shown) [GT-07382, 2-(6,7-dihydro-5H-pyrrolo[1,2-c]imidazol-1-yl)-2-(6-(4-(4-(((2-(2,4-dioxotetrahydropyrimidin-1(2H)-yl)-5-fluoropyridin-4-yl)methyl)(methyl)amino)piperidin-1-yl)phenyl)-4-fluoro-1-oxoisoindolin-2-yl)-N-(thiazol-2-yl)acetamide] | 10 to 50 |  |
| CN(Cc1cncc(N2CCC(=O)NC2=O)c1)C1CCN(c2ccc(-c3cc(F)c4c(c3)C(=O)N(C(C(=O)Nc3nccs3)c3ncn5c3CCC5)C4)cc2)CC1 (stereo not shown) [GT-07384, 2-(6,7-dihydro-5H-pyrrolo[1,2-c]imidazol-1-yl)-2-(6-(4-(4-(((5-(2,4-dioxotetrahydropyrimidin-1(2H)-yl)pyridin-3-yl)methyl)(methyl)amino)piperidin-1-yl)phenyl)-4-fluoro-1-oxoisoindolin-2-yl)-N-(thiazol-2-yl)acetamide] | 1 to 10 |  |
| CN(Cc1ccc(C2CCC(=O)NC2=O)cn1)C1CCN(c2ccc(-c3cc(F)c4c(c3)C(=O)N(C(C(=O)Nc3nccs3)c3ncn5c3CCC5)C4)cc2)CC1 (stereo not shown) [GT-07385, 2-(6,7-dihydro-5H-pyrrolo[1,2-c]imidazol-1-yl)-2-(6-(4-(4-(((5-(2,6-dioxopiperidin-3-yl)pyridin-2-yl)methyl)(methyl)amino)piperidin-1-yl)phenyl)-4-fluoro-1-oxoisoindolin-2-yl)-N-(thiazol-2-yl)acetamide] | 1 to 10 |  |
| O=C1CCN(c2cc(CN3C[C@H]4C[C@@H]3CN4c3ccc(-c4cc(F)c5c(c4)C(=O)N(C(C(=O)Nc4nccs4)c4ncn6c4CCC6)C5)cc3)ccn2)C(=O)N1 (stereo partly drawn) [GT-07387, 2-(6,7-dihydro-5H-pyrrolo[1,2-c]imidazol-1-yl)-2-(6-(4-((1R,4R)-5-((2-(2,4-dioxotetrahydropyrimidin-1(2H)-yl)pyridin-4-yl)methyl)-2,5-diazabicyclo[2.2.1]heptan-2-yl)phenyl)-4-fluoro-1-oxoisoindolin-2-yl)-N-(thiazol-2-yl)acetamide] | 1 to 10 |  |
| O=C1CCC(c2cc(CN3CCN(c4ccc(-c5cc(F)c6c(c5)C(=O)N(C(C(=O)Nc5nccs5)c5ncn7c5CCC7)C6)cc4)CC3)ccn2)C(=O)N1 (stereo not shown) [GT-07392, 2-(6,7-dihydro-5H-pyrrolo[1,2-c]imidazol-1-yl)-2-(6-(4-(4-((2-(2,6-dioxopiperidin-3-yl)pyridin-4-yl)methyl)piperazin-1-yl)phenyl)-4-fluoro-1-oxoisoindolin-2-yl)-N-(thiazol-2-yl)acetamide] | 1 to 10 |  |
| Cc1cc(Nc2ncc(Cl)c(Nc3ccccc3S(=O)(=O)C(C)C)n2)c(OC(C)C)cc1C1CCN(Cc2cc(C3CCC(=O)NC3=O)cnc2F)CC1 (stereo not shown) [GT-07598, 3-(5-((4-(4-((5-chloro-4-((2-(isopropylsulfonyl)phenyl)amino)pyrimidin-2-yl)amino)-5-isopropoxy-2-methylphenyl)piperidin-1-yl)methyl)-6-fluoropyridin-3-yl)piperidine-2,6-dione] |  | IC50 (H2228): 100 to 500 nM; IC50 (SR): 100 to 500 nM |
| COc1cc(N2CCN(Cc3cncc(N4CCC(=O)NC4=O)c3)CC2)ccc1Nc1ncc(Cl)c(Nc2ccccc2P(C)(C)=O)n1 [GT-07709, 1-(5-((4-(4-((5-chloro-4-((2-(dimethylphosphoryl)phenyl)amino)pyrimidin-2-yl)amino)-3-methoxyphenyl)piperazin-1-yl)methyl)pyridin-3-yl)dihydropyrimidine-2,4(1H,3H)-dione] |  | IC50 (H2228): 500 to 1000 nM; IC50 (SR): 50 to 100 nM |

Further lines, with some results ahead:

| IC50 (H1975) [nM] | Compound | other results |
| --- | --- | --- |
| 1 to 10 | O=C1CCC(c2cncc(CN3CCN(c4ccc(-c5cc(F)c6c(c5)C(=O)N(C(C(=O)Nc5nccs5)c5ncn7c5CCC7)C6)cc4)CC3)c2)C(=O)N1 (stereo not shown) [GT-07472, 2-(6,7-dihydro-5H-pyrrolo[1,2-c]imidazol-1-yl)-2-(6-(4-(4-((5-(2,6-dioxopiperidin-3-yl)pyridin-3-yl)methyl)piperazin-1-yl)phenyl)-4-fluoro-1-oxoisoindolin-2-yl)-N-(thiazol-2-yl)acetamide] |  |
| 10 to 50 | O=C1CCC(Nc2ncccc2CN2CCN(c3ccc(-c4cc(F)c5c(c4)C(=O)N(C(C(=O)Nc4nccs4)c4ncn6c4CCC6)C5)cc3)CC2)C(=O)N1 (stereo not shown) [GT-07489, 2-(6,7-dihydro-5H-pyrrolo[1,2-c]imidazol-1-yl)-2-(6-(4-(4-((2-((2,6-dioxopiperidin-3-yl)amino)pyridin-3-yl)methyl)piperazin-1-yl)phenyl)-4-fluoro-1-oxoisoindolin-2-yl)-N-(thiazol-2-yl)acetamide] |  |
| 1 to 10 | O=C1CCC(c2cnc(F)c(CN3CCN(c4ccc(-c5cc(F)c6c(c5)C(=O)N(C(C(=O)Nc5nccs5)c5ncn7c5CCC7)C6)cc4)CC3)c2)C(=O)N1 (stereo not shown) [GT-07490, 2-(6,7-dihydro-5H-pyrrolo[1,2-c]imidazol-1-yl)-2-(6-(4-(4-((5-(2,6-dioxopiperidin-3-yl)-2-fluoropyridin-3-yl)methyl)piperazin-1-yl)phenyl)-4-fluoro-1-oxoisoindolin-2-yl)-N-(thiazol-2-yl)acetamide] |  |
| 1 to 10 | CN(Cc1cc(C2CCC(=O)NC2=O)cnc1F)C1CCN(c2ccc(-c3cc(F)c4c(c3)C(=O)N(C(C(=O)Nc3nccs3)c3ncn5c3CCC5)C4)cc2)CC1 (stereo not shown) [GT-07560, 2-(6,7-dihydro-5H-pyrrolo[1,2-c]imidazol-1-yl)-2-(6-(4-(4-(((5-(2,6-dioxopiperidin-3-yl)-2-fluoropyridin-3-yl)methyl)(methyl)amino)piperidin-1-yl)phenyl)-4-fluoro-1-oxoisoindolin-2-yl)-N-(thiazol-2-yl)acetamide] |  |
| 1 to 10 | CN(Cc1cccnc1NC1CCC(=O)NC1=O)C1CCN(c2ccc(-c3cc(F)c4c(c3)C(=O)N(C(C(=O)Nc3nccs3)c3ncn5c3CCC5)C4)cc2)CC1 (stereo not shown) [GT-07561, 2-(6,7-dihydro-5H-pyrrolo[1,2-c]imidazol-1-yl)-2-(6-(4-(4-(((2-((2,6-dioxopiperidin-3-yl)amino)pyridin-3-yl)methyl)(methyl)amino)piperidin-1-yl)phenyl)-4-fluoro-1-oxoisoindolin-2-yl)-N-(thiazol-2-yl)acetamide] |  |
| 10 to 50 | O=C1CCC(c2cnc(F)c(CN3C[C@H]4C[C@@H]3CN4c3ccc(-c4cc(F)c5c(c4)C(=O)N(C(C(=O)Nc4nccs4)c4ncn6c4CCC6)C5)cc3)c2)C(=O)N1 (stereo partly drawn) [GT-07562, 2-(6,7-dihydro-5H-pyrrolo[1,2-c]imidazol-1-yl)-2-(6-(4-((1R,4R)-5-((5-(2,6-dioxopiperidin-3-yl)-2-fluoropyridin-3-yl)methyl)-2,5-diazabicyclo[2.2.1]heptan-2-yl)phenyl)-4-fluoro-1-oxoisoindolin-2-yl)-N-(thiazol-2-yl)acetamide] |  |
